Source: patent publication US11384055B2 (BIOMARIN PHARMACEUTICAL INC., priority 2017, dated 2022)

target: T1, Human GO (Homo sapiens, UniProt Q9UJM8); assay: GO enzymatic assay (coupled fluorescence/HRP assay, glycolate substrate); format: biochemical; details: Table 4; read-out: Range (range of IC50 values calculated from the enzymatic assays)
T1 construct: purchased Novus Biologicals NBP1-72412
T1 sequence (Q9UJM8 1-370): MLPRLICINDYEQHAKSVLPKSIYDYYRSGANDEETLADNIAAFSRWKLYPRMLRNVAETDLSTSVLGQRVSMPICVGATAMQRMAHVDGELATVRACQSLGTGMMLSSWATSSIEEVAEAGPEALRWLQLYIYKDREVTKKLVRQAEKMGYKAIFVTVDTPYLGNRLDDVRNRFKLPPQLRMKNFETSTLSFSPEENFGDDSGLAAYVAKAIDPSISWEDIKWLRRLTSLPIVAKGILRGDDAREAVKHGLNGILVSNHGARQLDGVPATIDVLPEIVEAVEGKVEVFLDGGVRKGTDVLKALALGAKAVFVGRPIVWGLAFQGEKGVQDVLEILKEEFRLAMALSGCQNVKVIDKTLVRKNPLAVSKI
Procedure, shortened: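 Human GO incubated with glycolate substrate in 50 mM potassium phosphate, pH 7, with varying inhibitor concentrations. Activity read by coupled HRP fluorescence. IC50 taken from variable-slope sigmoidal dose-response fits of percent inhibition relative to DMSO control.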

| IC50 [nM] | Structure (SMILES) |
| --- | --- |
| < 100 | O=C(O)c1[nH]nnc1O[C@H]1CC[C@H](c2ccc(OC(F)(F)F)c(C3CCC3)c2)CC1 [Example 484, 4-(((trans)-4-(3-cyclobutyl-4-(trifluoromethoxy)phenyl)cyclohexyl)oxy)-1H-1,2,3-triazole-5-carboxylic acid] |
| < 100 | COCCc1cc(-c2ccc([C@H]3CC[C@H](Oc4nn[nH]c4C(=O)O)CC3)cc2)[nH]n1 [Example 485, 4-(((trans)-4-(4-(3-(2-methoxyethyl)-1H-pyrazol-5-yl)phenyl)cyclohexyl)oxy)-1H-1,2,3-triazole-5-carboxylic acid 2,2,2-trifluoroacetate] |
| < 100 | O=C(O)c1[nH]nnc1CO[C@H]1CC[C@H](c2cc(Cl)cc(Cl)c2)CC1 [Example 486, 4-((((trans)-4-(3,5-dichlorophenyl)cyclohexyl)oxy)methyl)-1H-1,2,3-triazole-5-carboxylic acid] |
